Laboratory results published in ChEMBL document CHEMBL1201862, “PubChem BioAssay data set” (2004).
Activity calls are given as the source filed them.

Columns and labels:
[1] = alpha-synuclein stem-loop luciferase translation blockers – H4 neuroglioma cells, luminescence, confirmation (AID 1988); type: functional, cell-based
[2] = Luminescence Cell-Based Dose Response HTS to Identify Inhibitors of 5'UTR Stem-Loop Driven Prion Protein mRNA Translation in H4 Neuroglioblastoma Cells. [Related pubchem assays: 1827 (Project Summary), 1813 (Primary HTS)]; type: functional
[3] = luciferase reporter signal suppression in cells – H4 neuroglioma cells, luminescence, dose response (AID 1990); type: functional, cell-based
[4] = biological target: T1, Corticotropin-releasing factor receptor 2/Corticotropin-releasing factor-binding protein (Homo sapiens, UniProt P24387+Q13324); test: activators of CRF receptor 2 with binding protein – uHTS hits, confirmation (AID 602473); type: functional; conditions: read-out: EC50_Mean
T1 sequence (Q13324 whole entry): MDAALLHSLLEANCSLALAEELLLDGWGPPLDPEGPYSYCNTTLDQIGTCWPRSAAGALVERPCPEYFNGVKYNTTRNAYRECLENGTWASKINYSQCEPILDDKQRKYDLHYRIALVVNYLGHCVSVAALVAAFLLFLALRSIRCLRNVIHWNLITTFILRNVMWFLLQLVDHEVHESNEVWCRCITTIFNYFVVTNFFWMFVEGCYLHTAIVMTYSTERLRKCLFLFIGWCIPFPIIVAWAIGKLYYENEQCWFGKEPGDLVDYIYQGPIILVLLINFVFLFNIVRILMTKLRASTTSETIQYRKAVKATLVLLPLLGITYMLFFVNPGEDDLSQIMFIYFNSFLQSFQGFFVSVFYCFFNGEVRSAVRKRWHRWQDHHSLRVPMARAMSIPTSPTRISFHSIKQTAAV
T1 sequence (P24387 whole entry): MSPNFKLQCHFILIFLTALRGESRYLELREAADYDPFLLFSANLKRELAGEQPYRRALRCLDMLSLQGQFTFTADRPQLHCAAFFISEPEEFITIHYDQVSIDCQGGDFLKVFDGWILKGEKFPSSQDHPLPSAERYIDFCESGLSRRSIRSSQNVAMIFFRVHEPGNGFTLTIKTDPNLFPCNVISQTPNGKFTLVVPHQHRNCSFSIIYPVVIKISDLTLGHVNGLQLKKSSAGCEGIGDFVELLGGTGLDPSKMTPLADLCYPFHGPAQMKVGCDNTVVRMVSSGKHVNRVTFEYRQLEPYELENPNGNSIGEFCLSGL

[5] = biological target: Cytochrome P450 3A4 (Homo sapiens, UniProt P08684);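 further: CYP3A4 tested as one member of a cytochrome P450 panel screen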
Chain of Cytochrome P450 3A4 (P08684 whole entry): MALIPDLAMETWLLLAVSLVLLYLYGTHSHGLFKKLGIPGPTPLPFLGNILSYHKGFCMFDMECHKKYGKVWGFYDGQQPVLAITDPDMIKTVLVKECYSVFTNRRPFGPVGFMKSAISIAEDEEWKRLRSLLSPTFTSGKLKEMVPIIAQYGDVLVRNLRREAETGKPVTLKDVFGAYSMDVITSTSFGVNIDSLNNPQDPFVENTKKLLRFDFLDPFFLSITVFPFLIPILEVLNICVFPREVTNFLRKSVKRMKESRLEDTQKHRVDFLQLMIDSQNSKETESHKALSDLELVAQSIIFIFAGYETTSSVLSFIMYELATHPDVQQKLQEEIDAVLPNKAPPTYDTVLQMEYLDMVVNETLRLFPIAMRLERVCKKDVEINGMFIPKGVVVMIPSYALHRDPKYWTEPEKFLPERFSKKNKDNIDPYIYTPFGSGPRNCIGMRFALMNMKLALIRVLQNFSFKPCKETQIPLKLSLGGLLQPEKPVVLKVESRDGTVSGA

[6] = biological target: Cytochrome P450 2D6 (Homo sapiens, UniProt P10635);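 further: CYP2D6 member of a cytochrome P450 panel assay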
Chain of Cytochrome P450 2D6 (P10635 whole entry): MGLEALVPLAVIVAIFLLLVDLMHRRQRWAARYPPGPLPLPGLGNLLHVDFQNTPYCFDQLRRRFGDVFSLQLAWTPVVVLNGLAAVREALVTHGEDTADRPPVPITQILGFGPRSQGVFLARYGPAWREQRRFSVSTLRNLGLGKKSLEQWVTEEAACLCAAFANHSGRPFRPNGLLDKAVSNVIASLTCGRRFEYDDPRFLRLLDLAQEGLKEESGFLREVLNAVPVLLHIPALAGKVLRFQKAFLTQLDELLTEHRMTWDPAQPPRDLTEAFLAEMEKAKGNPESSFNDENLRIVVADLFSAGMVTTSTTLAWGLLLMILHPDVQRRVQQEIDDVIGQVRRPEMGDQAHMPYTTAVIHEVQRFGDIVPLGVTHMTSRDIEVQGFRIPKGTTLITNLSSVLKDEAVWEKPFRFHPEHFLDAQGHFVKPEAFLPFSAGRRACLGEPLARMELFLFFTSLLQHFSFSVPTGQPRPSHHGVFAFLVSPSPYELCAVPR

[7] = biological target: Cytochrome P450 2C19 (Homo sapiens, UniProt P33261); test: Cytochrome panel assay with activity outcomes. Panel member name: p450-cyp2c19 Compounds with AC50 equal or less than 10 uM are considered active; type: functional; conditions: read-out: AC50
Chain of Cytochrome P450 2C19 (P33261 whole entry): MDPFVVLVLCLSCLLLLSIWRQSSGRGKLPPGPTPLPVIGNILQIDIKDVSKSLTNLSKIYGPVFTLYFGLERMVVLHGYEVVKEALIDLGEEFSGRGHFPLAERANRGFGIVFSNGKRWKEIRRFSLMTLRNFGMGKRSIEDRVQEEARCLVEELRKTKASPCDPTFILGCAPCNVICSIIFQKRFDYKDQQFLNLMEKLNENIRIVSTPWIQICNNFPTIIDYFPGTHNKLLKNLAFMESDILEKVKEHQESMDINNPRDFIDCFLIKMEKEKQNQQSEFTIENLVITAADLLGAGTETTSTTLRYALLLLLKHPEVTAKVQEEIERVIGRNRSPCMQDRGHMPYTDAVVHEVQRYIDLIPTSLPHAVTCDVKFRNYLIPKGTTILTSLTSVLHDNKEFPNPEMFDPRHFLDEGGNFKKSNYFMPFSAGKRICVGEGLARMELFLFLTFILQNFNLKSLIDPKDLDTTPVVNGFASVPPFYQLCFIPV

[8] = biological target: Cytochrome P450 2C9 (Homo sapiens, UniProt P11712)
Chain of Cytochrome P450 2C9 (P11712 whole entry): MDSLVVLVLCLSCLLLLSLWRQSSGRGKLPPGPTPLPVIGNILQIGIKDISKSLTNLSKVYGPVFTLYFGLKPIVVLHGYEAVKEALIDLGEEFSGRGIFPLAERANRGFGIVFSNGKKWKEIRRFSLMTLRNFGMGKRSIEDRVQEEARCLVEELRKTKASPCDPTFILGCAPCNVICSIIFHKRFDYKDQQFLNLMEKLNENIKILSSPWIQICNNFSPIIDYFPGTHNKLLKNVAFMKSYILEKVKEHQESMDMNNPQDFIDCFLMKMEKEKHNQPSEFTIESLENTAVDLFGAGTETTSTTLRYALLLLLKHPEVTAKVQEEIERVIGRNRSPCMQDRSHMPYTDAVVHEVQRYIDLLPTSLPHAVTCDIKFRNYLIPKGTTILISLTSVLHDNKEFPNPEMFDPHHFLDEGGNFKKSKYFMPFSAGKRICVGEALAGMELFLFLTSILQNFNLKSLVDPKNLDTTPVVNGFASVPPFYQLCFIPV

[9] = Luminescence Cell-Based Dose Response HTS to Identify Activators of Luciferase Translation or Activity in H4 […] Cells. [Related pubchem assays: 1829 (Project Summary), 1814 (Primary HTS)]; type: functional
[10] = tested on: H4; test: Luminescence Cell-Based Dose Response HTS to Identify Activators of 5'UTR Stem-Loop Driven Prion Protein mRNA Translation in H4 Neuroglioblastoma Cells. [Related pubchem assays: 1829 (Project Summary), 1814 (Primary HTS)]; type: functional; conditions: Homo sapiens
[11] = tested on: Streptococcus; test: GAS UMAA2166 growth inhibition – luminescence, BacTiterGlo, counter-screen for streptokinase expression inhibitor project, dose response (AID 1915); type: functional, organism-based;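 further: potency for reduction of bacterial viability or growth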
[12] = biological target: T2, Streptokinase A (Streptococcus pyogenes serotype M1, UniProt P10520); test: viability-normalized secreted streptokinase activity reduction – plasminogen activation absorbance, OD405, dose response (AID 1914); type: functional, Streptococcus pyogenes M1 GAS;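 further: secreted streptokinase activity via plasminogen activation per viability signal from cell pellet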
T2 sequence (P10520 whole entry): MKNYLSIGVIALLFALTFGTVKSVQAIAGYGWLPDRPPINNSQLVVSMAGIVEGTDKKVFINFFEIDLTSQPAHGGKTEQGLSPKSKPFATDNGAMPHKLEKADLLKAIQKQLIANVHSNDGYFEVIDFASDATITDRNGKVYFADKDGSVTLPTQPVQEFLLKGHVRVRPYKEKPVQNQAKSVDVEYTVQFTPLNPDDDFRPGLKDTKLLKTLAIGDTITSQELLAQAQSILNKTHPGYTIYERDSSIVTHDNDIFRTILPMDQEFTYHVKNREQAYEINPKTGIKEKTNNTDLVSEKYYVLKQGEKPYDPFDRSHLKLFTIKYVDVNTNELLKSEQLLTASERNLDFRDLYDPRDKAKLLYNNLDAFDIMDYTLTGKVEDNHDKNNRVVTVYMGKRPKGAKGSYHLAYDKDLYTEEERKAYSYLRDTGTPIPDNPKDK

[13] = tested on: Streptococcus sp. 'group A'; test: Streptococcus pyogenes SK(-)GAS viability under kanamycin – luminescence, BacTiterGlo, confirmation, counter-screen for streptokinase expression inhibitor project, dose response (AID 1900); type: functional, organism-based
[14] = biological target: Luciferin 4-monooxygenase (Photinus pyralis, UniProt P08659); test: inhibition of purified Photinus pyralis luciferase – biochemical, luminescence, dose response (AID 1891)
Chain of Luciferin 4-monooxygenase (P08659 whole entry): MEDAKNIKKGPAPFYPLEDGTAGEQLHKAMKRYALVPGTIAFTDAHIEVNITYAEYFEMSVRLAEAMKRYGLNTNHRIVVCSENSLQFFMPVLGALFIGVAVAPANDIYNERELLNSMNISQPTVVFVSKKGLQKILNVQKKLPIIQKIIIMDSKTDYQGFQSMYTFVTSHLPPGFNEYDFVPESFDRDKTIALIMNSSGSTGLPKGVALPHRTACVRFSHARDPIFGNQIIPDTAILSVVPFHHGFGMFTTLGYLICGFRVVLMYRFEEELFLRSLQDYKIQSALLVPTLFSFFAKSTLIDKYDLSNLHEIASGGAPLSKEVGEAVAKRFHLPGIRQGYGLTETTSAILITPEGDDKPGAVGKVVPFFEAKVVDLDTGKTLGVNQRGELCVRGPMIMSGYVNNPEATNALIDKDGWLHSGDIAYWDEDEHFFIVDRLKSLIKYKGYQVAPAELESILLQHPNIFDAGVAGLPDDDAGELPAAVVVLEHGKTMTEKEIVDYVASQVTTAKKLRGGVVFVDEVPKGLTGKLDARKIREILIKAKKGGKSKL

[15] = Luminescence Cell-Based Dose Confirmation HTS to Identify Inhibitors of Platelet Dense Granule Release. [Related pubchem assays: 1663 (Primary HTS), 1678 (Summary of Project)]; type: functional
[16] = biological target: T3, Cytochrome P450 1A2 (Homo sapiens, UniProt P05177);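 further: PubChem cytochrome P450 panel assay, CYP1A2 panel member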
T3 sequence (P05177 whole entry): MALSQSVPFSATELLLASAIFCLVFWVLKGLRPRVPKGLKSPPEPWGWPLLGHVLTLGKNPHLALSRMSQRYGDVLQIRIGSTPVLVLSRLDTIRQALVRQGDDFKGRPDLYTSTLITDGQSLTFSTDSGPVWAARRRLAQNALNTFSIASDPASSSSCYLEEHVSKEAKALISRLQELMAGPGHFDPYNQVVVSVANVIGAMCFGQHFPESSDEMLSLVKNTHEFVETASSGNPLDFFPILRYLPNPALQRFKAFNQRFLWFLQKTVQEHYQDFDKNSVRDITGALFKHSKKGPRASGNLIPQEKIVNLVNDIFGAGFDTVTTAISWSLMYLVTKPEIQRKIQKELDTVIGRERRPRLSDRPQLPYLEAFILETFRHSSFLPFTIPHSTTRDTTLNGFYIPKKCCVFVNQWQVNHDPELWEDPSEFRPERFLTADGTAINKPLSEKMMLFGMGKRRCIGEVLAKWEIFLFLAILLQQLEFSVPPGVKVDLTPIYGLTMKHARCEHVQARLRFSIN

[17] = HIV-1 AD8 envelope cell-cell fusion blockers – cherry-pick, dose response (AID 652062); type: functional, cell-based;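 further: luciferase signal from cell-cell fusion driven by HIV-1 clade B AD8 Env; potency is for inhibitors of fusion seen as a drop in luminescence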

## COc1cccc(CNC(=O)c2nnn(CC(=O)Nc3ccc(Br)cc3)c2N)c1
[1]
  EC50: 11 µM (active)
[2]
  EC50: 103 µM (active)
[3]
  EC50: 46.9 µM (active)

## CCOc1ccc(C2C(C#N)=C(N)N3C(=C2C#N)Sc2ccccc23)cc1 (stereo unspecified)
[4]
  EC50: 8.06 µM (active)

## Cc1cccc(NC2=NN=C(c3ccc4c(c3)OCCO4)CS2)c1
[5]
  AC50: 2.82 µM (inconclusive)
[6]
  AC50: 17.8 µM (inconclusive)
[7]
  AC50: 5.01 µM (inconclusive)
[8]
  AC50: 5.62 µM (inconclusive)

## C=C1CCC2[C@](C)(CO)[C@H](O)CC[C@@]2(C)[C@@H]1C/C=C1\C(=O)OC[C@H]1O (stereo partly specified)
[9]
  EC50: > 120 µM (not active)
[10]
  EC50: 33 µM (active)

## O=C(NC1CCCc2ccccc21)C1CCN(S(=O)(=O)N2CCCCCC2)CC1 (stereo unspecified)
[6]
  AC50: 20 µM (inconclusive)
[8]
  AC50: 31.6 µM (inconclusive)

## COc1cnc(-c2ccccn2)nc1Oc1ccccc1Cl
[11]
  EC50: > 150 µM (not active)
[12]
  EC50: > 150 µM (not active)
[13]
  EC50: > 150 µM (not active)

## Cn1c(NNC(=O)c2ccccc2F)cc(=O)n(C)c1=O
[1]
  EC50: > 120 µM (not active)
[2]
  EC50: > 120 µM (not active)
[3]
  EC50: > 120 µM (not active)

## O=C(c1cccc(F)c1)N1CCC[C@@]2(CCN(Cc3ccncc3)C2)C1
[6]
  AC50: 25.1 µM (inconclusive)
[8]
  AC50: 20 µM (inconclusive)

## COC(=O)c1sccc1NC(=O)Nc1ccc(OC)cc1
[14]
  EC50: 0.358 µM (active)
[15]
  EC50: 1.33 µM (active)

## CCN(CC)S(=O)(=O)c1cccc(NC(=O)COC(=O)CCC(=O)c2ccc(F)cc2)c1
[14]
  EC50: > 112 µM (not active)
[15]
  EC50: > 112 µM (not active)

## O=C1c2ccccc2CCC12N=NCC2c1ccc(Cl)cc1 (stereo unspecified)
[5]
  AC50: 39.8 µM (inconclusive)
[6]
  AC50: 28.2 µM (inconclusive)
[16]
  AC50: 20 µM (inconclusive)

## COC(=O)c1ccc(Oc2nc(C)cc(Oc3ccccc3)n2)cc1
[14]
  EC50: > 112 µM (not active)
[15]
  EC50: > 112 µM (not active)

## CC(C)Cc1csc(NC(=O)c2ccc(Br)cc2)c1C(=O)O
[11]
  EC50: 6.59 µM (active)
[12]
  EC50: > 150 µM (not active)
[13]
  EC50: 3.59 µM (active)

## COc1cc(C2C(C#N)=C(N)N(Nc3ccccc3)C3=C2C(=O)CC(C)(C)C3)ccc1OCc1ccccc1 (stereo unspecified)
[1]
  EC50: > 120 µM (not active)
[2]
  EC50: 18.7 µM (active)
[8]
  AC50: 0.794 µM (inconclusive)
[3]
  EC50: 13.4 µM (active)

## Cc1onc(C(=O)Nc2ccc3c(c2)OCO3)c1[N+](=O)[O-]
[14]
  EC50: > 112 µM (not active)
[15]
  EC50: > 112 µM (not active)

## COC(=O)c1nc(NC(=S)NC(=O)c2cccs2)sc1C
[11]
  EC50: > 150 µM (not active)
[12]
  EC50: > 150 µM (not active)
[13]
  EC50: 9.59 µM (active)

## O=C(CCCCCNC(=O)c1ccccc1)N=Nc1c(O)[nH]c2c(Br)cc(Br)cc12
[11]
  EC50: 28.4 µM (active)
[12]
  EC50: > 150 µM (not active)
[13]
  EC50: 6.76 µM (active)

## O=S(=O)(Nc1cccc(-c2ccc3nncn3n2)c1)c1cc(F)ccc1F
[14]
  EC50: > 112 µM (not active)
[15]
  EC50: > 112 µM (not active)

## CC1(c2ccc(OC(F)F)cc2)NC(=O)N(CC(=O)Nc2cccnc2Cl)C1=O (stereo unspecified)
[4]
  EC50: 15 µM (active)

## Fc1ccc(-n2cc(-c3ccccc3)c3c(NN4CCOCC4)ncnc32)cc1
[1]
  EC50: > 120 µM (not active)
[3]
  EC50: > 120 µM (not active)

## FC(F)(F)c1nc2nc(Cl)c(Cl)nc2n1CCCN1CCOCC1
[5]
  AC50: 5.01 µM (inconclusive)
[6]
  AC50: 3.98 µM (inconclusive)
[16]
  AC50: 3.16 µM (inconclusive)

## O=C(c1nn(Cc2ccccc2)c(=O)c2ccccc12)N1CCN(C/C=C/c2ccccc2)CC1
[6]
  AC50: 17.8 µM (inconclusive)
[16]
  AC50: 20 µM (inconclusive)

## O=c1c(CCc2ccccc2)nc2cncnc2n1-c1ccccc1
[5]
  AC50: 5.01 µM (inconclusive)
[6]
  AC50: 25.1 µM (inconclusive)
[8]
  AC50: 25.1 µM (inconclusive)

## CC(C)CC(=O)Nc1ccc(C(=O)NNC(=S)NC(=O)C2CCCCC2)cc1
[1]
  EC50: 12.4 µM (active)
[11]
  EC50: 5.23 µM (active)
[2]
  EC50: 14.8 µM (active)
[13]
  EC50: 1.65 µM (active)
[3]
  EC50: 12.5 µM (active)

## CCCCc1ccc(NC(=O)NCc2ccccn2)cc1
[11]
  EC50: > 150 µM (not active)
[12]
  EC50: > 150 µM (not active)
[13]
  EC50: > 150 µM (not active)

## O=C1c2ccccc2C(=O)c2c1cccc2-n1nnc2ccccc21
[1]
  EC50: > 120 µM (not active)
[2]
  EC50: > 120 µM (not active)
[3]
  EC50: 16.3 µM (active)

## COCC(=O)N1CCC2(CCCN(Cc3ccncc3)C2)CC1
[5]
  AC50: 12.6 µM (inconclusive)
[6]
  AC50: 15.8 µM (inconclusive)

## Cc1c(C#N)c(N)nc2c3c(sc12)NC(=O)CC3c1ccc(F)cc1 (stereo unspecified)
[14]
  EC50: > 112 µM (not active)
[15]
  EC50: > 112 µM (not active)

## COc1ccc(C(=O)OC2CCN(c3ncc(C(F)(F)F)cc3Cl)CC2)cc1
[11]
  EC50: 39.7 µM (active)
[12]
  EC50: > 150 µM (not active)
[13]
  EC50: 66.5 µM (active)

## C/C(=N\NC(=O)c1ccc(O)cc1)c1cccc(NC(=O)c2ccccc2C)c1
[11]
  EC50: > 150 µM (not active)
[12]
  EC50: > 150 µM (not active)
[13]
  EC50: > 150 µM (not active)

## CCc1ccccc1/N=C/c1c(C)c(C#N)c2nc3ccccc3n2c1O
[4]
  EC50: 4.75 µM (active)

## COc1cccc(S(=O)(=O)N2CC3(CN(C(=O)Nc4cccc(F)c4)[C@H](CO)c4[nH]c5cc(OC)ccc5c43)C2)c1
[17]
  AC50: 22 µM (active)

## CCCCOC(=O)N/N=C/C=C/c1ccccc1
[14]
  EC50: > 112 µM (not active)
[15]
  EC50: > 112 µM (not active)

## Cc1ccsc1/C=N/N1CCN(C2c3ccccc3-c3ccccc32)CC1
[14]
  EC50: > 112 µM (not active)
[15]
  EC50: > 112 µM (not active)

## CCN(CC)CCNC(=O)c1cc(Br)c(N)cc1OC [BROMOPRIDE]
[6]
  AC50: 5.01 µM (inconclusive)
[16]
  AC50: 10 µM (inconclusive)
